Target: T1, CDK2/CyclinE (Homo sapiens, UniProt P24941)
T1 construct: GST; purchased ProQinase GmbH (Freiburg, Germany); host or cells: insect cells (Sf9)
Experiment: CDK2/CycE kinase assay (TR-FRET)
Type: biochemical
Conditions: 2 mM ATP (high ATP); median; read-out: CDK2/CyclinE, 2 mM ATP (high ATP) IC50 - [mol/l] (median)
Summary of the method: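 GST-tagged human CDK2/CycE (Sf9-expressed, ~10 ng/mL) was preincubated 15 min with compound, then run 25 min at 22 °C with 2 mM ATP and 0.75 μM biotinylated peptide, pH 8.0. Phospho-substrate was detected by TR-FRET (anti-RB pSer807/811, Eu-anti-mouse, streptavidin-XL665), 665/620 nm ratio, normalised to no-inhibitor and no-enzyme controls.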

**Q.** Which IC50 does the source give for CC1COCCC1n1nc(NCc2nc3ccccc3[nH]2)c2ncc(C3CC3)nc21 (racemic) [Example 42, (±)-cis/trans-N-[(1H-benzimidazol-2-yl)methyl]-6-cyclopropyl-1-(3-methyloxan-4-yl)-1H-pyrazolo[3,4-b]pyrazin-3-amine] here?
**A.** > 20 µM

Reference: patent publication US20230192700A1, “PYRAZOLOPYRAZINES ACTING ON CANCERS VIA INHIBITION OF CDK12” (Bayer Aktiengesellschaft, priority 2020, published 2023)
